Reference: publication PMC3615411 (Cancer research, 2008)

Molecular target: E2F4 (Mus musculus, UniProt Q8R0K9)
Test: EMSA of E2F4 DNA binding with compound added to cell extract
Assay type: biochemical
Conditions: NIH-3T3 protein extract; 20 µM screen; STAT3 EMSA as negative control

E2F4, sequence (Q8R0K9 2-410): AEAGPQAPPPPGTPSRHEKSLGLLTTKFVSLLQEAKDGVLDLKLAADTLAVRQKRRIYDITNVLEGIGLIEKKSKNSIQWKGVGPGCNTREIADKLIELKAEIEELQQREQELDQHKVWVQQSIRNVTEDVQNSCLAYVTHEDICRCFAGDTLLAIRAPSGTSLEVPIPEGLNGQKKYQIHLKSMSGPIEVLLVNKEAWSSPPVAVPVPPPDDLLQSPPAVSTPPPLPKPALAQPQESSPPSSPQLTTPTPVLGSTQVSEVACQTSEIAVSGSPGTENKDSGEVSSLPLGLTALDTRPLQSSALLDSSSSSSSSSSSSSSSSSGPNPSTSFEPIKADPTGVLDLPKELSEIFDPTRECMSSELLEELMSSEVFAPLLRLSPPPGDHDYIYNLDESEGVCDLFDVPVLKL

CCOc1ccc(C(Nc2ccccn2)c2ccc3ccc(C)nc3c2O)cc1C (stereo not shown) [HLM006474]
inhibition at 20 μM: Incubation of these compounds with NIH-3T3 protein extracts identified ten compounds with potential E2F4-inhibitory activity
